The values that follow come from patent US20250073346A1, “PHARMACEUTICAL COMBINATIONS” (Oxford Bio Therapeutics Ltd, priority 2021, published 2025).

In one assay the test system is HT-29 cells. In words: Platin after 72 hr LY75_A1 pre-treatment, cell viability (cell-titer glo). The class given is cell-based. Here is the method: (§1) Cells were diluted in excess media and spun down. […] The plate was Incubated for 24 hr at 37° C. to allow cells to adhere and become acclimatized prior to addition of drug. The plates were incubated for 72 hr at 37° C. After 72 hr, the media was removed and replaced with either cisplatin or oxaliplatin at various concentrations (see figures) in 100 ul media before incubation for a further 48 hr.
(§2) After the incubation period, the plate was removed from the incubator and left at room temperature for 30 minutes. Media was removed from the plate which was washed twice with 200 ul PBS. The plate was then treated with cell-titer glo (CTG) following the manufacturer's protocol (Promega, Catalog No. G9681). Briefly, 200 ul CTG solution/well was added before incubating at RT on a plate rotator at low speed for 2 min before incubation in the dark for a further 10 min.
(§3) The plates were removed and the viability under the various conditions calculated.

Another assay relates to N87 cells. Described as above. The class given is cell-based. Particulars: for reduction of IC50 in cells pre-treated with LY75_A1: pre-treated with LY75_A1 for 72 hours. Here is the method: as §1, §2, §3
For the next assay, the system named is HPAFII cells. Described as above. The class given is cell-based. Particulars: for viability of cells: HPAFII, ~50 uM oxaliplatin. Here is the method:
as §1, §2, §3

Assay [1] has as its system NCI-N87 gastric cancer xenograft. The experiment in a line: Subcutaneous NCI-N87 gastric cancer xenograft model. The class given is in vivo, mouse. Here is the method: The animals were fed ad libitum water (reverse osmosis, 1 ppm CI) and NIH 31 Modified and Irradiated Lab Diet® consisting standard rodent chow. The mice were housed on Crushed corncob bedding, autoclaved; changed weekly on a 12-hour light cycle at 20-22° C. (68-72° F.) and 40-60% humidity.
The NCI-N87 tumor cells were maintained in vitro with RMPI 1640 medium supplemented with 10% fetal bovine serum at 37° C. in an atmosphere of 5% CO2 in air. The cells in exponential growth phase were harvested and quantitated by cell counter before tumor inoculation.
Each mouse was inoculated subcutaneously in the right upper flank region with NCI-N87 tumor cells (1×10^7) in PBS mixed with matrigel (1:1) for tumor development. After tumor inoculation, the animals were checked daily for morbidity and mortality. During routine monitoring, the animals were checked for any effects of tumor growth and treatments on behavior such as mobility, food and water consumption, body weight gain/loss (Body weights would be measured two times per week after randomization), eye/hair matting and any other abnormalities. Mortality and observed clinical signs were recorded for individual animals in detail.
Tumor volumes were measured two times per week after randomization in two dimensions using a caliper, and the volume was expressed in mm3 using the formula: V=(L×W×W)/2, where V is tumor volume, L is tumor length (the longest tumor dimension) and W is tumor width (the longest tumor dimension perpendicular to L). Dosing as well as tumor and body weight measurements were conducted in a Laminar Flow Cabinet.
The randomization started when the mean tumor size reached approximately 183 mm3. […]
Each animal was euthanized for tumor progression (TP) when its tumor reached the […] endpoint. The time to endpoint (TTE) for each mouse was calculated with the following equation: TTE=log (endpoint volume)−b/m. […] Any animal determined to have died from treatment-related (TR) causes was to be assigned a TTE value equal to the day of death. […]
Treatment outcome was evaluated from tumor growth delay (TGD), which was defined as the increase in the median TTE for a treatment group compared to the control group: TGD=T−C expressed in days or as a percentage of the median TTE for the control group % TGD=T−C/C×100 where, T=median TTE for a treatment group, C=median TTE for the control group.
Animals were weighed daily on Days 1-5, and then twice weekly until the end of the study. Group mean BW nadirs were determined before more than 50% of the animals in a group exited the study. The mice were observed frequently for health and overt signs of any adverse TR side effects, and clinical observations were recorded, if observed. […]

The target of assay [2] is T1, LY75 (DEC-205), lymphocyte antigen 75 (human, UniProt O60449 28-1722).
T1 construct: Endogenous LY75 in human tumour tissue sections and on human tumour cell lines
T1 sequence (O60449 28-1722 limits assumed): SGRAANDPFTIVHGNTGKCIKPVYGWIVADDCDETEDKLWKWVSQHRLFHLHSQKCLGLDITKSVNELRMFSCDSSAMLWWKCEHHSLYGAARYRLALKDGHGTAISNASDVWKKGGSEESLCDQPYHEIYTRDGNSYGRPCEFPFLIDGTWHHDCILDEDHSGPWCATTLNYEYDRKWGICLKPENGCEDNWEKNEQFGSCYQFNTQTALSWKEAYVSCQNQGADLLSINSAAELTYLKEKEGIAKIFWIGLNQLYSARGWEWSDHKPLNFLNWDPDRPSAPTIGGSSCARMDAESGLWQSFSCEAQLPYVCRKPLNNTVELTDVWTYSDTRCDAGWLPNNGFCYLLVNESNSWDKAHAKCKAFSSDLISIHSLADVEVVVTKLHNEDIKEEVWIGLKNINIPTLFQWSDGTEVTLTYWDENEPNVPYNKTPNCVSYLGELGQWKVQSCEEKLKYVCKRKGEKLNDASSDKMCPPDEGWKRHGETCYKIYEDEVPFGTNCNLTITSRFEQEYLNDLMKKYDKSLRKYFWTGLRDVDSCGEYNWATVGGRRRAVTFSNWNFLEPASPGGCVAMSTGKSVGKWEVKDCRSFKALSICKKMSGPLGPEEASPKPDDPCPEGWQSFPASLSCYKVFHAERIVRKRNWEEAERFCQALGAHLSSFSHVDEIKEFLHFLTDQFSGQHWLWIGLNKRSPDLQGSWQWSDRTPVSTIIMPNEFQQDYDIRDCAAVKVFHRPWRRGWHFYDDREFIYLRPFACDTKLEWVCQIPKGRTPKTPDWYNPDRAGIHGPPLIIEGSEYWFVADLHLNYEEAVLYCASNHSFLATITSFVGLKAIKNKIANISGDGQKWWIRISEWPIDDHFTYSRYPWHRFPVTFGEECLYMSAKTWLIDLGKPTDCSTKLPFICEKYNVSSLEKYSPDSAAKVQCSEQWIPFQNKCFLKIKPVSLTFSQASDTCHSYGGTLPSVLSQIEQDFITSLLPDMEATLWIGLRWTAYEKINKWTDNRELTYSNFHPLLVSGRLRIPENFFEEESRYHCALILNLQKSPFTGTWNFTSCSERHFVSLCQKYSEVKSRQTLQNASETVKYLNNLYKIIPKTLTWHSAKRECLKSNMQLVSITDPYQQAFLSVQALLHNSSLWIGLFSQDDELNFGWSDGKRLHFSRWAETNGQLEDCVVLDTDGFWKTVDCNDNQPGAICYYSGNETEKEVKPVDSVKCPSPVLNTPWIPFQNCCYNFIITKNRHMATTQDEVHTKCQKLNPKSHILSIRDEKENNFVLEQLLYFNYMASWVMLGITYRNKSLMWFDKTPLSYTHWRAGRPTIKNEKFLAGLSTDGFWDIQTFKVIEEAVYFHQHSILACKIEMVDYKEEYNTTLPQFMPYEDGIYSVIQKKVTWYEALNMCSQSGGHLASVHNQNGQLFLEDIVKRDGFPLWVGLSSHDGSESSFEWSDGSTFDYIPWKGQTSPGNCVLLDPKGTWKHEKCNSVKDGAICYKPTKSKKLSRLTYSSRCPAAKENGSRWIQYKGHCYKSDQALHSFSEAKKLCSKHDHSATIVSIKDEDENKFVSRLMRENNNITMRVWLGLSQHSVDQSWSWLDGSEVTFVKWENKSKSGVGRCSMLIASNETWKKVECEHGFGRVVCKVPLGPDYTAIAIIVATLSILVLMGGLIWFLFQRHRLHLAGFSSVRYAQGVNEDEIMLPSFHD
The experiment in a line: immunohistochemistry on FFPE human tumour tissue sections. How it is done:
(§4) Using the human monoclonal antibodies specific to LY75, immunohistochemistry was performed on FFPE HT-29 and A549 cell pellets, FFPE non-Hodgkin's lymphoma and pancreatic cancer arrays, and fresh frozen lymphoma/leukaemia tumours, ovarian cancer, pancreatic cancer, and breast cancer sections and a normal tissue array.
(§5) The LY75 antigen was retrieved using microwave heat, high power until boiling then low power for 10 minutes in 50 mL 1×citrate buffer in a Coplin jar. Slides were then left to cool to room temperature for a further 15 min, then washed in tap water, 3 minutes. Circles were drawn around each tissue section/TMA with a hydrophobic barrier pen and slides were then washed 3 times in PBS, 3 minutes each wash.
Meanwhile, endogenous tissue peroxidase activity was blocked by incubating tissues with peroxidase suppressor for 5-10 minutes at RT in a humidified chamber. Slides were then washed in PBS 3×3 minutes each wash. Tissues were incubated in SFPB for 30 minutes at room temperature in a humidified chamber. Final staining complexes were applied to each tissue section and/or microarray, and the slides were incubated for 30 min at room temperature in a humidified chamber. Slides were then washed once in PBS and once in PBST (PBS+0.125% Tween-20), 3 minutes each wash. […]

Another assay deals with T2, LY75 (Homo sapiens, UniProt O60449).
T2 construct: tissue US Biomax Inc. or Origene; host or cells: FFPE triple negative breast cancer tissue sections/arrays
T2 sequence (O60449 28-1722): as the sequence (O60449 28-1722 limits assumed) above
In words: Immunohistochemistry with anti-LY75 antibody on FFPE Triple Negative breast cancer samples. How it is done:
as §4
FFPE slides were deparaffinised in xylene (2×3 minutes) then rehydrated through 1:1 xylene: 100% ethanol (1×3 minutes), 100% ethanol (2×3 minutes), 95% ethanol (1×3 minutes), 70% ethanol (1×3 minutes), 50% ethanol (1×3 minutes), and tap water (1×3 minutes).
as §5
The primary anti-LY75 antibody was diluted in serum free protein block (SFPB) to obtain a solution with a concentration 20-fold greater than the final desired concentration (20 μg/mL for 1 μg/mL final). The secondary antibody, goat anti-human immunoglobulin G (IgG) antigen-binding fragment (Fab), was prepared similarly in SFPB to create a solution of equal concentration. […]

Setting [3] is: HT29 cells pretreated with 0.5 nM LY75_A1 for 72 hours.
Setting [4] is: HT29 cells pretreated with 2 nM LY75_A1 for 72 hours.
The mark [5] stands for this setting: N87 cells pretreated with 1 nM LY75_A1 for 72 hours.
The mark [6] stands for this setting: N87 cells pretreated with 10 nM LY75_A1 for 72 hours.
Where [7] appears, read: single agent, single i.v. dose day 1 (OBT076 1 mg/kg; Oxaliplatin 5 mg/kg).

Usually IC50 stands for the concentration that inhibits the measured activity by half. In the case of `N.N.[Cl][Pt][Cl]` [Cisplatin, cis-diamminedichloroplatinum(II)], the half-inhibitory concentration (IC50) with HT-29 cells (setting [3]) was 44.6 µM; in the assay with HT-29 cells (setting [4]), 18.7 µM; in the assay on HT-29 cells (HT29 cells, cisplatin alone, 48 hr), 44.7 µM; in the assay with N87 cells (setting [5]), 3.5 µM; with N87 cells (setting [6]), 0.9 µM; in the assay on N87 cells (N87 cells, cisplatin alone, 48 hr), 10 µM. Moreover, the viability of cells entry was “no cell death” in the assay with HT-29 cells (HT-29, ~10 uM cisplatin, not pre-treated, FIG. 5B); “significantly lower than those which are not pre-treated” in the assay with HT-29 cells (HT-29, ~10 uM cisplatin, pre-treated with 2 nM LY75_A1, FIG. 5B); “no cell death” in the assay on N87 cells (N87, ~3 uM cisplatin, not pre-treated, FIG. 5E); “significantly lower than those which are not pre-treated” in the assay with N87 cells (N87, ~3 uM cisplatin, pre-treated with 1 or 10 nM LY75_A1, FIG. 5E). The “reduction of IC50 in cells pre-treated with LY75_A1” value in the assay with N87 cells (N87 cells) is reported as 10 fold.
With `O=C1[O][Pt]2([NH][C@@H]3CCCC[C@H]3[NH]2)[O]C1=O` [Oxaliplatin], the IC50 in the assay with HT-29 cells (setting [3]) was 55.1 µM; in the assay on HT-29 cells (setting [4]), 32.7 µM; with HT-29 cells (HT29 cells, oxaliplatin alone, 48 hr) it was 66.8 µM; in the assay on N87 cells (setting [5]), 14.1 µM; in the assay on N87 cells (setting [6]), 1 µM; in the assay with N87 cells (N87 cells, oxaliplatin alone, 48 hr), 44.5 µM. Besides, the IC50 in the assay with HPAFII cells (HPAFII cells pretreated with 1 nM LY75_A1 for 72 hours) is 85.4 µM; in the assay on HPAFII cells (HPAFII cells pretreated with 3 nM LY75_A1 for 72 hours), 62.1 µM; in the assay on HPAFII cells (HPAFII cells pretreated with 10 nM LY75_A1 for 72 hours), 58.8 µM; in the assay on HPAFII cells (HPAFII cells, oxaliplatin alone, 48 hr), roughly 256 µM. Also, the viability of cells entry in the assay on HT-29 cells (HT-29, ~10 uM oxaliplatin, not pre-treated, FIG. 5A) was “no cell death”; with HT-29 cells (HT-29, ~10 uM oxaliplatin, pre-treated with 2 nM LY75_A1, FIG. 5A), “significantly lower than those which are not pre-treated”; in the assay with N87 cells (N87, ~10 uM oxaliplatin, not pre-treated, FIG. 5D) it was “no cell death”; with N87 cells (N87, ~10 uM oxaliplatin, pre-treated with 1 or 10 nM LY75_A1, FIG. 5D), “significantly lower than those which are not pre-treated”; in the assay with HPAFII cells (not pre-treated, FIG. 5C) it was “no cell death”; with HPAFII cells (pre-treated with all concentrations (1, 3, 10 nM) of LY75_A1, FIG. 5C), “significantly lower than those which are not pre-treated”. Besides, the “reduction of IC50 in cells pre-treated with LY75_A1” value in the assay with N87 cells (N87 cells) was 44 fold; with HPAFII cells (HPAFII cells, pre-treated with LY75_A1 for 72 hours) it was “approximately 4 fold”. For the same molecule, in assay [1] (by Day 81, single agent alone), the “mice that had died” value is recorded as roughly 71%. The “TGI on day 60” value in assay [1] (setting [7]) amounted to 0.49%. For the same molecule, the “Tumor Size (mm^3) on day 60” value in assay [1] (setting [7]) is 1969.92 +/− 258.93 mm^3. Besides, the “% Survival” value in assay [1] (to Day 81, single agent, single i.v. dose day 1 (OBT076 1 mg/kg; Oxaliplatin 5 mg/kg)) worked out at 28.57%.

B1: LY75_A1 monoclonal antibody (antibody, human IgG1, kappa, V domains shown)
VH: EVQLVESGGGLVKPGGSLRLSCAASGFTYSNAWMSWVRQAPGKGLEWVGRIKSKTDGGTTDYAAPVQGRFTISRDDSKNTLYLQMNSLKTEDTAVYYCTIFGVVSFDYWGQGTLVTVSS
VL: DVQMTQSPSSLSASVGDRVTITCRASQSISDYLSWYQQRPGKAPNLLIYAASNLKTGVPSRFSGSGSGTDFTLTISTLQPEDFATYYCQQSYRSPWTFGQGTKVEIKR
notes: Human antibody, detected with goat anti-human IgG Fab in the immunohistochemistry; also called anti-LY75_A1
B1: the binding result in assay [2] is “binds”. For the same molecule, in the assay with LY75, the “sections exhibited robust (+++) staining” value is reported as 55% and the “sections showed positive staining” value worked out at 77%.
